Target: T1, HinfPDH (prephenate dehydrogenase component of chorismate mutase/prephenate dehydrogenase TyrA) (Haemophilus influenzae, UniProt P43902)
T1 construct: prephenate dehydrogenase domain, residues 81-377 (Met1-Phe80 excluded); N-terminal His tag removed by TEV, leaving Gly; selenomethionine-labelled; expressed in E. coli; dimer
Assay: X-ray crystal structure, […] A
Type: binding
Conditions: ligand acquired during expression in E. coli, not added

T1 sequence (P43902 81-377): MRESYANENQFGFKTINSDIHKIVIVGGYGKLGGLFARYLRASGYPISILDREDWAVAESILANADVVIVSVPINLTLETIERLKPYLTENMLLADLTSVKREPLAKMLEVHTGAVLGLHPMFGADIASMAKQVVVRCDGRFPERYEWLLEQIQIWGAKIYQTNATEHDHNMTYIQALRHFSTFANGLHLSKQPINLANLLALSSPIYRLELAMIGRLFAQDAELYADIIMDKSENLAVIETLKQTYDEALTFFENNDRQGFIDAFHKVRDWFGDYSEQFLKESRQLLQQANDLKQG

With NC(=O)c1ccc[n+]([C@@H]2O[C@H](COP(=O)(O)OP(=O)(O)OC[C@H]3O[C@@H](n4cnc5c(N)ncnc54)[C@H](O)[C@@H]3O)[C@@H](O)[C@H]2O)c1 [NAD^+] as the molecule, how does the “X-ray crystal structure, 2.0 A” value (ternary complex with tyrosine, cofactor site) read?
The value was “One tyrosine and one NAD^+ are bound in each monomer”.

Which “X-ray crystal structure, 2.0 A” value (ternary complex with NAD+, active site, competitive mode only inferred) does the source give for N[C@@H](Cc1ccc(O)cc1)C(=O)O [tyrosine] here?
The value was “could be unambiguously assigned to a tyrosine molecule and an NAD^+ cofactor”.

Source: PMC2954222, “The structure of Haemophilus influenzae prephenate dehydrogenase suggests unique features of bifunctional TyrA enzymes” (Acta Crystallographica Section F: Structural Biology and …, 2010)
